System: human OA chondrocytes
Experiment: IL-1β stimulation of human OA chondrocytes: ZCCHC6, ZCCHC11 and IL-6 expression (TaqMan, ELISA, Western immunoblotting)
Type: cell-based
Description: Chondrocytes were derived by enzymatic digestion of human cartilage obtained from OA patients (n=14) undergoing knee joint replacement. Chondrocytes were stimulated with IL-1β (5 ng/ml) or treated with Actinomycin D (5 μg/ml) or NFκB inhibitor SC514 (75 μM) or JNK inhibitor (25 μM). Total RNA from grounded cartilage and from chondrocytes was purified using Qiagen RNeasy kit (Qiagen). Reverse transcription was performed using the Quantitect Reverse Transcription kit and the ZCCHC6 or IL-6 mRNA was quantified using TaqMan assays. SiRNA-mediated depletion of ZCCHC6 in human chondrocytes was used to study the effect on inflammatory cytokine expression using a cytokine array (Ray Biotech). Protein expression of IL-6 was studied using Western immunoblotting and quantified by ELISA in culture supernatants. Results were derived using Sigma Plot 12.3 package and p<0.05 was considered significant.
We next determined whether IL-1β induces expression of IL-6 correlates with the expression of ZCCHC6 in human OA chondrocytes. Human OA chondrocytes were cultured and treated with IL-1β as above and the mRNA expression of IL-6 was quantified by TaqMan assay and secreted IL-6 was quantified using an ELISA kit specific for human IL-6 (R&D Systems, Catalog No. D0650, sensitivity of 2.17 pg IL-6/ml). ZCCHC6 protein expression was determined by Western immunoblotting using an antibody specific for the N-terminus of the protein (Santa Cruz, sc-137947).

[1] = human OA chondrocytes stimulated with IL-1β (5 ng/ml) for 24 h

**Q.** “IL-1β: major cytokine involved in cartilage catabolism in osteoarthritis; used to stimulate chondrocytes” was tested. Which “expression of ZCCHC6 protein (Western immunoblotting)” value [1] did it give?
**A.** highly induced

**Q.** What about the “secreted IL-6 in the culture medium (ELISA)” value [1] of the same substance?
**A.** secreted large amounts of IL-6

**Q.** And the “expression of ZCCHC11” value (human chondrocytes treated with IL-1β)?
**A.** marginally upregulated

Source: patent US20190101533A1, “ANIMAL MODEL FOR STUDYING ZCCHC6 IN BONE DISEASE AND DEVELOPMENT” (Northeast Ohio Medical University, priority 2016, published 2019)
